Results as given in patent US20140329692A1, “METHOD FOR MEASURING DNA METHYLATION PROFILES” (ALBERT EINSTEIN COLLEGE OF MEDICINE OF YESHIVA UNIVERSITY, priority 2013, published 2014).

Assays:
[1] = test system: global methylation; conditions: 5-Aza treatment; cited from earlier work
[2] = test system: promoter region of Oct4; experiment: DNA methylation profile of the Oct4 promoter in 5-Aza-treated MEFs (bisulfite treatment, MDA amplification, nested PCR, Sanger sequencing); format: cell-based, mouse; conditions: 1 μM 5-Aza
Text: To definitively test the protocol, it was investigated whether it was capable of directly detecting epimutations, i.e., random changes in methylation status of single cytosines as a consequence of, for example, errors in de novo or maintenance methylation. While estimates of DNA methylation accuracy have been reported (13, 14), it has never been possible to directly determine such epimutations. To test if the method was able to detect single cell-specific epimutations, a time course experiment was performed in MEFs treated with 5-azacytidine (5-Aza). 5-Aza prevents methylation at CpG sites in newly synthesized DNA through covalent binding to Dnmt1 (15). […] Cultured cells were treated with 1 μM 5-Aza for 48 and 72 hours; ten single cells as well as 100-cell controls from each treatment group were subjected to lysis and bisulfite treatment followed by MDA amplification. Then the promoter region of Oct4 was tested and it was shown that a fully methylated pattern of CpG sites was present in the untreated single fibroblasts as well as in the 100-cell control (FIG. 1B, upper panel).
Isolation of single mouse embryonic fibroblasts: Mouse embryonic fibroblasts (MEFs) were isolated from embryonic day 13.5 embryos of C57BL/6 mice as described (31). All cultures were maintained in a 3% O2 and 5% CO2 atmosphere. The solutions of 5-aza-2′-deoxycytidine (5-Aza; Sigma, St. Louis, Mo., USA) in culturing medium were prepared at the time of application and applied every 24 hours for 72 hours. After trypsinization, single MEFs were collected under an inverted microscope by hand-held capillaries, deposited in PCR tubes and immediately frozen on dry ice and stored at […] until needed or immediately bisulfite-converted.
Bisulfite conversion: The bisulfite conversion and recovery of DNA were performed using the EZ DNA Methylation-Direct Kit (Zymo Research, Orange, Calif.). Bisulfite conversion was performed according to the instructions of the supplier with some modifications. First the bisulfite solution was added to the single or 100 cells together with 2 ng of salmon sperm DNA or tRNA. […]

For `Nc1ncn([C@H]2C[C@H](O)[C@@H](CO)O2)c(=O)n1` [5-Aza, 5-aza-2′-deoxycytidine], the global methylation [1] is given as “significant decrease in global methylation”, the “demethylation of Oct4 promoter” value ([2]; 48 hours, 100-cell sample) is given as less than 50% and the “methylation status of Oct4 promoter CpG sites” value ([2]; 48 hours, single fibroblasts) is given as “a mixed population was found comprising either methylated or unmethylated cytosines”. The “methylation status of Oct4 promoter CpG sites” value ([2]; 72 hours, both single fibroblasts and 100-cell control sample) was “fully demethylated”.
